Assay results published in patent US7659277B2, “Ubiquitin ligase inhibitors and methods related thereto” (Proteologies, Ltd., priority 2003, dated 2010).

Experiments:
HIV-1 = test: HIV maturation (budding) in virus-like particle assay, HIV-1 p24 antigen ELISA; type: cell-based; conditions: Human immunodeficiency virus 1, read-out: Budding (3 μM)
Excerpt: Compounds were further assessed for effects on maturation of HIV particles in a virus-like particle assay.

POSH = target: T1, POSH (Homo sapiens, UniProt Q7Z6J0); test: Selectivity (% A in 1 μM), ubiquitin ligase activity of POSH; type: biochemical; conditions: read-out: Selectivity (% A* in 1 μM) POSH
T1 construct: GST-POSH lot NB81/p.118 3.6 mg/ml; fused on or other part: GST tag, used for detection with anti-GST XL665
T1 sequence (Q7Z6J0 1-269 limits assumed): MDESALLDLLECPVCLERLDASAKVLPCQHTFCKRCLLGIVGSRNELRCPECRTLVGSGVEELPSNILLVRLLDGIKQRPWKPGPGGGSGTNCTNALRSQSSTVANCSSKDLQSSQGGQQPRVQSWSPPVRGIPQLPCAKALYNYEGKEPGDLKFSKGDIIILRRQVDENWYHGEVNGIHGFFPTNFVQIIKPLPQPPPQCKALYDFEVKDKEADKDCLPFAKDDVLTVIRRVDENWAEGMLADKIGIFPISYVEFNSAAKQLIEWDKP
Description: Experimental Protocols: 1. HTS Screening Assay Procedure • Microplates 10109D to 10114D compounds at 1 mM. • (Controls in column 1). • All compounds were perchase from ChemBridge corporation: ChemBridge corporation 16981 Via Tazon, Suite G San Diego, Calif. 92127 a. Microplates Labeling • Put labels to 6 PS U-bottom clear microplate. • Put labels to 18 black microplates (triplicats). b. Microplates Preparation • Put 100 μl GST-POSH at 33 nM in wells of the clear PS U-bottom microplates (exept wells A1-D1). • Negative control: place 100 μl dH2O in wells A1-D1. • (Positive control: place 100 μl GST-POSH at 33 nM in wells E1-H1). • Put 8 μl enzymes solution ×4 to black microplates (column 1 to 11). c. Incubation of E3 with Compounds • Transfer 5 μl of compounds (at 1 mM) to the microplates containing 100 μl GST-POSH. • Add 5 μl of DMSO to controls column 1. • Incubation 30 minutes at RT. d. […] 2. […] Microplates Labeling • Put labels to 4 clear PP clear microplate (18.2 μM, 9.1 uM, 1.82 uM, 910 nM,). • Put labels to 5 clear PS U-bottom clear microplate 4.44 μM, 909, 444, 91 and 44 nM) • Put labels to 15 black microplates (triplicates). f. Original Microplate Dilutions • Put DMSO 40 μl to (18.2 μM, 1.82 uM plates) and 20 ul to (9.1 uM, 910 nM plates. • Mix by pipetation the original microplate (3× up and down 45 μl). • Transfer 10 μl of compounds from the original microplate (at 91 μM) to the next microplate (=18.2 μM) on splitting apparatus. • Mix by pipetation the 18.2 uM microplate (3× up and down 45 μl). • Transfer 20 μl of compounds from the 18.2 uM microplate to the next microplate (=9.1 μM) on splitting apparatus. • Mix by pipetation the 9.1 uM microplate (3× up and down 45 μl). • Transfer 10 μl of compounds from the 9.1 uM microplate to the next microplate (=1.82 μM) on splitting apparatus. • Mix by pipetation the 1.82 uM microplate (3× up and down 45 μl). • Transfer 20 μl of compounds from the 1.82 uM microplate to the next microplate (=910 nM) on splitting apparatus • Mix by pipetation. g. Microplates Preparation • Put 123 μl GST-POSH at 33 nM in wells of the 5 clear PS U-bottom clear microplates. • Positive control: place 123 μl GST-POSH at 33 nM in well A12-h12 13 μl DMSO. • Negative control: place 123 μl dH2O in well B1 and 13 μl DMSO. • Put 8 μl enzymes solution ×4 to 15 black microplates. • Controls: put 8 μl enzymes solution ×4 to wells A1 to F1. h. Incubation of POSH with Compounds • Take 7 μl of compounds at original plate (91 μM) and put into the 4.44 μM labeled microplate containing 123 μl GST-POSH, on splitting apparatus. • Mix by pipetation (3× up and down 115 μl), note time. • Take 7 μl of compounds at 18.2 μM and put into the 910 nM labeled microplate containing 123 μl GST-POSH, on splitting apparatus. • Mix by pipetation (3× up and down 115 μl), note time. • Take 7 μl of compounds at 9.1 μM and put into the 444 nM labeled microplate containing 123 μl GST-POSH, on splitting apparatus. • Mix by pipetation (3× up and down 115 μl), note time. • Take 7 μl of compounds at […] and put into the 91 nM labeled microplate containing 123 μl GST-POSH, on splitting apparatus. • Mix by pipetation (3× up and down 115 μl), note time. • Take 7 μl of compounds at 91.0 nM and put into the 44 nM labeled microplate containing 123 μl GST-POSH, on splitting apparatus. • Mix by pipetation (3× up and down 115 μl), note time. • Incubation 30 minutes at RT. i.

SMILES	activity at 3 µM (HIV-1) [%]	remaining activity at 1 µM (POSH) [%]
Cc1ccc2nsnc2c1/N=C/c1c(O)ccc2ccccc12 [Compound 53]	64	12
O=c1nc(-c2ccc(Br)cc2)cc(-c2ccc([N+](=O)[O-])cc2)[nH]1 [Compound 84]	47	67
O=C1C=CC(=O)N1c1ccccc1Cl [Compound 18]	41	24
Cc1ccc(/N=C/c2cccc(O)c2O)cc1C [Compound 56]	59	27
COc1ccc(N2C(=O)NC(=O)/C(=C\C=C\c3ccccc3)C2=O)cc1 [Compound 8]	67	9
S=C(c1ccc(-c2cc(Cl)ccc2Cl)o1)N1CCCCC1 [Compound 35]	56	44
CN(C)c1ccc(/C=C2\C(=O)N(c3ccc([N+](=O)[O-])cc3)N=C2N2CCOCC2)cc1 [Compound 42]	51	138
O=c1/c(=C/c2ccc(N3CCOCC3)cc2)sc2nc3ccccc3n12 [Compound 32]	67	66
CCCCOc1ccc(NC(=S)N2CCn3c4c(c(=O)c5cc(C)ccc53)CCC42)cc1 (centres unmarked) [Compound 81]	63	3
CN(C)c1ccc(/C=C2\SC(=S)N(C3CCS(=O)(=O)C3)C2=O)cc1 (centres unmarked) [Compound 110]	36	94
O=C(O)c1ccc(-c2ccc(/C=c3\sc4nc5ccccc5n4c3=O)o2)cc1 [Compound 28]	54	26
COc1ccc(NC(=O)c2cc3cccc(N)c3cc2O)cc1 [Compound 114]	46	31
O=[N+]([O-])c1ccc(CN2CCN(c3cccc(Cl)c3)CC2)o1 [Compound 80]	55	50
O=C1C=CC(=O)N1c1ccc(Cl)cc1 [Compound 19]	52	39
Cc1c(C(=O)/C=C/c2cccs2)c2cc(O)ccc2n1C [Compound 76]	48	35
CN1C(=O)/C(=C\c2ccc(-c3cccc([N+](=O)[O-])c3)o2)SC1=S [Compound 115]	48	8
